# Results as given in US7989446B2, “4-amino 5-cyanopyrimidine derivatives” (Otsuka Pharmaceutical Co., Ltd., priority 2004, dated 2011).
# Assays:
# [1] = molecular target: T1, adenosine A2a receptor (Human) (Homo sapiens, UniProt P29274); experiment: c-AMP generating action in cell expressing adenosine A2a receptor; assay type: cell-based; details: HEK293 cell expressing human A2a; 100% = c-AMP caused by 1 μM CGS-21680; read-out: A2a Agonistic Action (EC50)
# T1 construct: host or cells: HEK293
# Summary of the method: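 HEK293 cells with human A2a receptor were preincubated 30 min at 37 °C with 0.1 mM IBMX and 2 U/mL adenosine deaminase. Compound was then added for 30 min and cAMP read by EIA. EC50 = concentration giving 50% of the cAMP produced by 1 μM CGS-21680.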
# A1 receptor = molecular target: T2, A1 receptor (Rattus norvegicus, UniProt P25099); experiment: Adenosine A1 agonistic action ([35S]GTPγS binding, rat cerebral cortex cell membrane); assay type: biochemical, male Wistar rats; details: percentage to 100% of CPA 1 μM
# T2 construct: cerebral cortex of male Wistar rats (Charles River Japan, Inc) was extirpated; from tissue; host or cells: cerebral cortex of male Wistar rats, cell membrane preparation
# T2 sequence (P25099 1-326): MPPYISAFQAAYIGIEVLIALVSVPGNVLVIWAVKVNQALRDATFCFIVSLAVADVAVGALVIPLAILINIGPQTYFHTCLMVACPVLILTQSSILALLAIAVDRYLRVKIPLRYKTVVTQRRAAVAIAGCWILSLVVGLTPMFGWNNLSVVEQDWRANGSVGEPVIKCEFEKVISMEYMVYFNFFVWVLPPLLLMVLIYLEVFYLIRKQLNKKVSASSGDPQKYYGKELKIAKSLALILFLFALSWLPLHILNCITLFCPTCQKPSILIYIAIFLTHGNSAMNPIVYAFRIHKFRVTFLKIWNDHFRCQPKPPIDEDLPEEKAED
# Procedure: (2) Adenosine A1 Agonistic Action
# The test was carried out as mentioned below with reference to the method disclosed in the literature (Shryock J. C. et al., Molecular Pharmacology, (1998) 53, 886-893; Ito H. et al., European Journal of Pharmacology, (1999) 365, 309-315). That is, cerebral cortex of male Wistar rats (Charles River Japan, Inc) was extirpated, thereto Tris buffer (50 mM Tris-HCl: pH 7.4) was added, it was homogenized, and then centrifuged (1000×g, 10 min). The supernatant was taken, and centrifuged (20,000×g, 20 min). After removing off the supernatant, the precipitate was suspended in Tris buffer, and recentrifuged (20,000×g, 20 min). After removing off the supernatant, the precipitate was suspended in Tris buffer including 2 units/mL ADA (adenosine deaminase) and reserved at −80° C. until used as a liquid preparation of cell membrane for the following tests.
# The above liquid preparation of cell membrane in an amount corresponding to 10 μg of cell membrane was added to Tris-buffer comprising 5 mM of MgCl2, 1 mM of EDTA, 1 mM of dithiothreitol, 100 mM of NaCl, 0.01 mM of GDP (guanosine diphosphate), 5 mg/mL of BSA and 2 units/mL of ADA and the mixture was incubated at 25° C. for 30 minutes. Additionally, [^35S]GTPγS (Guanosine 5′-[γ-thio]triphosphate) (the final concentration: 0.4 nM) and the test compound of the given concentration (which was calculated based on the final concentration of the test compound) were added to the mixture and the resulting mixture was incubated at 25° C. for 45 minutes. The reaction mixture was filtrated through a glass fiber filter (unifilter-96 GF/B, Perkin Elmer Life Sciences) to quench reaction. The filter was washed 5 times with ice-cooled Tris-buffer including 5 mM MgCl2. The radioactivity of the filter was measured with Top count NXT(Perkin Elmer Life Sciences). The nonspecific binding was shown as the binding activity of [^35S]GTPγS in the presence of 0.01 mM GTPγS.
# The activity (%, A1 agonistic action) of each test compound was calculated on the basis of the test result ([^35S]GTPγS binding activity) derived with 1 μM of CPA (N^6-Cyclopentyladenosine, Sigma, code C-8031) in control which was counted as 100%.
# [2] = system: Intraocular Pressure in Rabbit; experiment: Measuring test for intraocular pressure in rabbit; assay type: in vivo, Female New Zealand white rabbits; details: mean±standard error
# Summary of the method: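 Female New Zealand white rabbits received 50 μL eye drops of compound in 10 mM phosphate buffer pH 7.5 (suspension if insoluble) in one eye, vehicle as control. IOP measured by pneumatonometer under topical oxybuprocaine before and 0.5–6 h after dosing; reported as ΔIOP from pre-instillation, mmHg, mean±SE.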
# [3] = 0.01% ophthalmic solution, test group, 0.5 hr
# [4] = 0.01% ophthalmic solution, test group, 1 hr
# [5] = 0.01% ophthalmic solution, test group, 2 hr
# [6] = 0.01% ophthalmic solution, test group, 3 hr
# [7] = 0.01% ophthalmic solution, test group, 4 hr
# [8] = 0.01% ophthalmic solution, test group, 6 hr
# [9] = 0.03% ophthalmic solution, rabbit, instillation, 0.5 hr after instillation, difference from pre-instillation
# [10] = 0.03% ophthalmic solution, rabbit, instillation, 1 hr after instillation, difference from pre-instillation
# [11] = 0.03% ophthalmic solution, rabbit, instillation, 2 hr after instillation, difference from pre-instillation
# [12] = 0.03% ophthalmic solution, rabbit, instillation, 3 hr after instillation, difference from pre-instillation
# [13] = 0.03% ophthalmic solution, rabbit, instillation, 4 hr after instillation, difference from pre-instillation
# [14] = 0.03% ophthalmic solution, rabbit, instillation, 6 hr after instillation, difference from pre-instillation
# T1 sequence (P29274 whole entry): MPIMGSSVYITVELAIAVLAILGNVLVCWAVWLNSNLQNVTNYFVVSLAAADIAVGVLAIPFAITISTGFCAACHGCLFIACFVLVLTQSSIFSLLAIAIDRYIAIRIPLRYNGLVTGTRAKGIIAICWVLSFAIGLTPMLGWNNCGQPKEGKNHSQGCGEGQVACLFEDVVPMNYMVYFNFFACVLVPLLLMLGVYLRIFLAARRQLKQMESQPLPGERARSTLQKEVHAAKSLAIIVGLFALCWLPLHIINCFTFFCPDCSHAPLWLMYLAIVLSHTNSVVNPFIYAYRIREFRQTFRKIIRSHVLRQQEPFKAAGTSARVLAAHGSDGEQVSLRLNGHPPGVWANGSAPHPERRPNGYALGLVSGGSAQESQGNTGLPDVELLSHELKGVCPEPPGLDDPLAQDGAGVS
Structure (SMILES),EC50 [1],A1 Agonistic Action (%) (A1 receptor; test compound 10 nM),A1 Agonistic Action (%) (A1 receptor; test compound 100 nM),A1 Agonistic Action (%) (A1 receptor; test compound 1 μM),"ΔIOP (mmHg) [2, 9]","ΔIOP (mmHg) [2, 10]","ΔIOP (mmHg) [2, 11]","ΔIOP (mmHg) [2, 12]","ΔIOP (mmHg) [2, 13]","ΔIOP (mmHg) [2, 14]",other results
"N#Cc1c(N)nc(SCc2csc(-c3ccc(Cl)cc3)n2)c(C#N)c1-c1ccc(OCCO)cc1 [Comparative Compound A, reference compound]",> 1000 nM,14%,55%,79%,,,,,,,
"CC(=O)Nc1ccc(-c2c(C#N)c(N)nc(SCc3ccccn3)c2C#N)cc1 [Comparative Compound B, reference compound]",14.3 nM,20%,63%,77%,,,,,,,
"CC(=O)Nc1ccc(-c2nc(SCc3cccc(CCC(=O)N4CCN(C)CC4)n3)nc(N)c2C#N)cc1 [Example 46, N-[4-(6-amino-5-cyano-2-{6-[3-(4-methylpiperazin-1-yl)-3-oxopropyl]pyridin-2-ylmethylsulfanyl}pyrimidin-4-yl)phenyl]-acetamide]",7.4 nM,4%,26%,45%,,,,,,,"ΔIOP (mmHg) [2, 3]: −0.6 ± 0.6 mmHg; ΔIOP (mmHg) [2, 4]: −4.4 ± 0.8 mmHg; ΔIOP (mmHg) [2, 5]: −4.9 ± 0.6 mmHg; ΔIOP (mmHg) [2, 6]: −3.8 ± 0.7 mmHg; ΔIOP (mmHg) [2, 7]: −2.9 ± 0.5 mmHg; ΔIOP (mmHg) [2, 8]: −0.5 ± 0.6 mmHg"
"CC(=O)Nc1ccc(-c2nc(SCc3cccc(CCC(=O)N(C)CCN(C)C)n3)nc(N)c2C#N)cc1.Cl [Example 62, 3-{6-[4-(4-acetylaminophenyl)-6-amino-5-cyanopyrimidin-2-ylsulfanylmethyl]pyridin-2-yl}-N-(2-dimethylaminoethyl)-N-methylpropionamide hydrochloride]",5.1 nM,8%,30%,39%,−1.2 ± 0.7 mmHg,−4.7 ± 0.5 mmHg,−5.1 ± 0.3 mmHg,−4.9 ± 0.3 mmHg,−3.6 ± 0.3 mmHg,−1.0 ± 0.6 mmHg,
"CCN(CC)CCN1CCN(C(=O)CCc2cccc(CSc3nc(N)c(C#N)c(-c4ccc(NC(C)=O)cc4)n3)n2)CC1.Cl [Example 75, N-{4-[6-amino-5-cyano-2-(6-{3-[4-(2-diethylaminoethyl)piperazin-1-yl]-3-oxopropyl}pyridin-2-ylmethylsulfanyl)pyrimidin-4-yl]phenyl}acetamide hydrochloride]",3 nM,3%,22%,50%,,,,,,,"ΔIOP (mmHg) [2, 3]: −0.8 ± 0.4 mmHg; ΔIOP (mmHg) [2, 4]: −5.1 ± 0.5 mmHg; ΔIOP (mmHg) [2, 5]: −5.3 ± 0.9 mmHg; ΔIOP (mmHg) [2, 6]: −4.0 ± 0.9 mmHg; ΔIOP (mmHg) [2, 7]: −4.3 ± 0.9 mmHg; ΔIOP (mmHg) [2, 8]: −1.3 ± 0.4 mmHg"
"CC(=O)Nc1ccc(-c2nc(SCc3cccc(CCC(=O)N4CCN(CCN(C(C)C)C(C)C)CC4)n3)nc(N)c2C#N)cc1.Cl [Example 76, N-{4-[6-amino-5-cyano-2-(6-{3-[4-(2-diisopropylaminoethyl)piperazin-1-yl]-3-oxopropyl}pyridin-2-ylmethylsulfanyl)pyrimidin-4-yl]phenyl}acetamide hydrochloride]",7.6 nM,0%,14%,46%,,,,,,,"ΔIOP (mmHg) ([2]; 0.01% ophthalmic solution, rabbit, instillation, 0.5 hr after instillation, difference from pre-instillation): −3.7 ± 0.5 mmHg; ΔIOP (mmHg) ([2]; 0.01% ophthalmic solution, rabbit, instillation, 1 hr after instillation, difference from pre-instillation): −6.0 ± 0.8 mmHg; ΔIOP (mmHg) ([2]; 0.01% ophthalmic solution, rabbit, instillation, 2 hr after instillation, difference from pre-instillation): −5.7 ± 0.1 mmHg; ΔIOP (mmHg) ([2]; 0.01% ophthalmic solution, rabbit, instillation, 3 hr after instillation, difference from pre-instillation): −6.1 ± 0.3 mmHg; ΔIOP (mmHg) ([2]; 0.01% ophthalmic solution, rabbit, instillation, 4 hr after instillation, difference from pre-instillation): −5.2 ± 0.4 mmHg; ΔIOP (mmHg) ([2]; 0.01% ophthalmic solution, rabbit, instillation, 6 hr after instillation, difference from pre-instillation): −3.6 ± 0.7 mmHg"
"CC(=O)Nc1ccc(-c2nc(SCc3cccc(CCC(=O)N4CCN(CCN5CCCC5)CC4)n3)nc(N)c2C#N)cc1.Cl [Example 77, N-{4-[6-amino-5-cyano-2-(6-{3-oxo-3-[4-(2-pyrrolidin-1-ylethyl)piperazin-1-yl]propyl}pyridin-2-ylmethylsulfanyl)pyrimidin-4-yl]phenyl}acetamide hydrochloride]",9.5 nM,2%,18%,40%,−0.8 ± 0.5 mmHg,−5.0 ± 0.6 mmHg,−5.1 ± 0.4 mmHg,−4.4 ± 0.6 mmHg,−4.9 ± 0.7 mmHg,−3.1 ± 0.7 mmHg,
"CCN(CC)CCN1CCN(C(=O)CCc2cccc(CSc3nc(N)c(C#N)c(-c4ccc(NC(C)=O)cc4)n3)n2)CC1.Cl [Example 79, N-{4-[6-amino-5-cyano-2-(6-{3-[4-(2-diethylaminoethyl)piperazin-1-yl]-3-oxopropyl}pyridin-2-ylmethylsulfanyl)pyrimidin-4-yl]phenyl}acetamide hydrochloride]",8.4 nM,,,,0.3 ± 0.9 mmHg,−3.9 ± 0.5 mmHg,−5.4 ± 0.7 mmHg,−5.8 ± 0.8 mmHg,−4.8 ± 0.7 mmHg,−2.8 ± 1.0 mmHg,"A1 Agonistic Action (%) (A1 receptor; test compound 10 nM, hydrochloride): 0%; A1 Agonistic Action (%) (A1 receptor; test compound 100 nM, hydrochloride): 12%; A1 Agonistic Action (%) (A1 receptor; test compound 1 μM, hydrochloride): 45%"
